Test results published in paper PMC10762035, “Molecular basis of human trace amine-associated receptor 1 activation” (Nature Communications, 2024).
Residue numbers refer to the chain shown, from its start. Where “and” joins values, the source holds several entries; their conditions need not be identical. Equal values may be shown once.

Columns and labels:
Format in all cases: cell-based
[1] = molecular target: T1, hTA1 b2N (Homo sapiens, UniProt Q96RJ0); experiment: GloSensor cAMP accumulation assay, b2N construct; conditions: b2N, n=2
T1 construct: read by me as the first 25 residues of β2AR (N); expressed in transfected cells; host or cells: HEK293T

[2] = molecular target: T2, hTA1 C13S (Homo sapiens, UniProt Q96RJ0, C13S); experiment: GloSensor cAMP accumulation assay, C13S mutant; conditions: for C13S - Normalized Luminescence Counts (N=2): log[Compound], single wells
T2 construct: expressed in transfected cells; host or cells: HEK293T
T2 sequence (Q96RJ0 1-339 C13S): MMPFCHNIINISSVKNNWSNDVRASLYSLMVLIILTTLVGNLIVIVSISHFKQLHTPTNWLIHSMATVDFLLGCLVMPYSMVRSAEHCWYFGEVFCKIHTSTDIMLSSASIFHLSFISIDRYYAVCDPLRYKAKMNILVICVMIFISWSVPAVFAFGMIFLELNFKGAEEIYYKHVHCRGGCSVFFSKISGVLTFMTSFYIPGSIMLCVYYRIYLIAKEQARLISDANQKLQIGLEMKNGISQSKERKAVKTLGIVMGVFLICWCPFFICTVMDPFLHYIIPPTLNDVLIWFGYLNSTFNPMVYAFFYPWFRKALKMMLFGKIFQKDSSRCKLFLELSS

[3] = molecular target: T3, hTA1 C88S (Homo sapiens, UniProt Q96RJ0, C88S); experiment: GloSensor cAMP accumulation assay, C88S mutant; conditions: C88S
T3 construct: expressed in transfected cells; host or cells: HEK293T
T3 sequence (Q96RJ0 1-339 C88S): T2 sequence (Q96RJ0 1-339 C13S) with S13C, C88S

[4] = molecular target: T4, hTA1 V184P (Homo sapiens, UniProt Q96RJ0, V184P); experiment: GloSensor cAMP accumulation assay, V184P mutant; conditions: for cAMP accumulation response, single replicate values (source data, Supplementary Figure 5): hTA1 V184P (N=2), log[Compound]
T4 construct: expressed in transfected cells; host or cells: HEK293T
T4 sequence (Q96RJ0 1-339 V184P): T2 sequence (Q96RJ0 1-339 C13S) with S13C, V184P

[5] = molecular target: T5, hTA1 I290Y (Homo sapiens, UniProt Q96RJ0, I290Y); experiment: GloSensor cAMP accumulation assay, I290Y mutant; conditions: for cAMP accumulation response, normalized (concentration-response source data, single replicate values): hTA1 I290Y (N=3), log[Compound];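 as to cAMP accumulation response, normalized (concentration-response source data, single replicate values): normalized to the maximum response of β-PEA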
T5 construct: expressed in transfected cells; host or cells: HEK293T
T5 sequence (Q96RJ0 1-339 I290Y): T2 sequence (Q96RJ0 1-339 C13S) with S13C, I290Y

[6] = molecular target: T6, hTA1 F195T (Homo sapiens, UniProt Q96RJ0, F195T); experiment: GloSensor cAMP accumulation assay, F195T mutant;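 also: cells transiently co-expressing HA-FLAG-tagged hTA1 and the GloSensor cAMP biosensor, luminescence read 30 min after agonist addition at room temperature, concentration-response fitted by nonlinear regression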
T6 construct: expressed in transfected cells; host or cells: HEK293T
T6 sequence (Q96RJ0 1-339 F195T): T2 sequence (Q96RJ0 1-339 C13S) with S13C, F195T

T1 sequence (Q96RJ0 with tags, fused parts or gaps): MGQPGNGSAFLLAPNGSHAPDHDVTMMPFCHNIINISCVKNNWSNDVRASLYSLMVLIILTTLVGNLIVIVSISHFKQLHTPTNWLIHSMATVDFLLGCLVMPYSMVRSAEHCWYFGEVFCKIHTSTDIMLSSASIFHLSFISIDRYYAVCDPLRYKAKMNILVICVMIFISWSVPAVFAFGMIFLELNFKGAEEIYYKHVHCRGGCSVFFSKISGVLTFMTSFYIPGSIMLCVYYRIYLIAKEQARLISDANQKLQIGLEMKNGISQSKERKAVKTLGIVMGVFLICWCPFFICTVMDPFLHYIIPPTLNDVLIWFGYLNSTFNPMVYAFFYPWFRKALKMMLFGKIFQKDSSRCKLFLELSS

NCCc1ccc(Oc2ccc(O)cc2)c(I)c1 [T1AM, 3-iodothyronamine]
Span ± SEM (Emax normalized to β-PEA) [1]: 80.48 | pEC50 ± SEM [1]: 6.65 ± 0.05 | EC50 ([1]; read-out: EC50): 224 nM | ΔpEC50 values (each mutant value - WT average) ([2]; C13S): -0.156 and -0.1145 | Emax values ([2]; C13S, Mean of fit per experiment): 53.0882 and 64.9586 | Span ± SEM (Emax normalized to β-PEA) ([2]; C13S, n=2): 59.02 ± 5.94 | pEC50 ± SEM ([2]; C13S, n=2): 5.99 ± 0.05 | EC50 ([2]; C13S, n=2, read-out: EC50): 1010 nM | pEC50 values, Mean ([2]; hTA1 C13S, mean of 3 replicates, one line per independent experiment): 5.973 and 6.015 | C13S - Normalized Luminescence Counts (N=2) ([2]; M = -5): 54.3554 and 36.9604 and 53.1374 and 65.6185 and 52.4268 and 54.7653 | C13S - Normalized Luminescence Counts (N=2) ([2]; M = -5.522): 42.3654 and 30.6418 and 38.8635 and 53.123 and 40.9666 and 58.8174 | C13S - Normalized Luminescence Counts (N=2) ([2]; M = -6): 26.7212 and 21.3162 and 26.3787 and 35.2187 and 26.4539 and 31.7735 | C13S - Normalized Luminescence Counts (N=2) ([2]; M = -6.522): 13.0564 and 10.1636 and 13.437 and 17.4036 and 12.4411 and 15.1722 | Emax values ([3]; Mean of fit per experiment): 51.5909 and 77.2309 | pEC50 values ([3]; Mean of fit per experiment): 6.196 and 6.127 | Span ± SEM (Emax normalized to β-PEA) ([3]; n=2): 64.41 | pEC50 ± SEM ([3]; n=2): 6.16 ± 0.04 | EC50 ([3]; n=2, read-out: EC50): 690 nM | Span ± SEM (Emax normalized to β-PEA) ([4]; V184P, n=2): 70.26 | pEC50 ± SEM ([4]; V184P, n=2): 6.27 ± 0.05 | EC50 ([4]; V184P, n=2, read-out: EC50): 539 nM | cAMP accumulation response, single replicate values (source data, Supplementary Figure 5) ([4]; M = -5): 47.1774 and 43.1039 and 48.2443 and 102.347 and 62.5054 and 96.189 | cAMP accumulation response, single replicate values (source data, Supplementary Figure 5) ([4]; M = -5.522): 32.0474 and 39.1275 and 36.5088 and 86.7693 and 72.5115 and 76.5066 | cAMP accumulation response, single replicate values (source data, Supplementary Figure 5) ([4]; M = -6): 40.0973 and 27.683 and 25.5492 and 73.6844 and 54.6984 and 67.6001 | cAMP accumulation response, single replicate values (source data, Supplementary Figure 5) ([4]; M = -6.522): 14.9776 and 12.068 and 13.8138 and 37.1052 and 29.2983 and 35.6391 | cAMP accumulation response, single replicate values (source data, Supplementary Figure 5) ([4]; M = -7): 5.085 and 5.182 and 3.9211 and 15.2237 and 21.0881 and 16.0667 | cAMP accumulation response, single replicate values (source data, Supplementary Figure 5) ([4]; M = -7.522): -0.4433 and -1.4132 and 0.1386 and 3.678 and 3.238 and 3.861 | cAMP accumulation response, single replicate values (source data, Supplementary Figure 5) ([4]; M = -8): -0.9283 (2×) and -1.51 and 5.3642 and 2.908 and 3.861 | cAMP accumulation response, single replicate values (source data, Supplementary Figure 5) ([4]; M = -8.522): -1.316 and -1.607 and -1.51 and 1.809 and 2.2854 and 1.442 | cAMP accumulation response, single replicate values (source data, Supplementary Figure 5) ([4]; M = -9): -1.704 (2×) and -1.801 and 1.442 and -0.5735 and 0.4894 | cAMP accumulation response, single replicate values (source data, Supplementary Figure 5) ([4]; M = -9.522): -1.4132 and -1.801 and -1.607 and 0.3795 and -0.4269 and 0.5994 | cAMP accumulation response, single replicate values (source data, Supplementary Figure 5) ([4]; M = -10): -1.51 and -1.801 (2×) and 1.149 and -0.207 and 0.01294 | cAMP accumulation response, single replicate values (source data, Supplementary Figure 5) ([4]; M = -10.522): -1.316 and -1.607 (2×) and -0.2803 and 0.08625 and -1.233 | cAMP accumulation response, single replicate values (source data, Supplementary Figure 5) ([4]; M = -11): -1.801 and -1.122 and -1.4132 and 0.746 and 0.7093 and 0.1596 | cAMP accumulation response, single replicate values (source data, Supplementary Figure 5) ([4]; M = -11.522): -1.316 and -1.025 and -1.4132 and 0.636 and 1.039 and -0.3169 | cAMP accumulation response, single replicate values (source data, Supplementary Figure 5) ([4]; M = -12): -1.801 and -1.122 and -1.219 and -0.4635 and 0.9659 and -0.1337 | cAMP accumulation response, single replicate values (source data, Supplementary Figure 5) ([4]; M = -12.522): -1.219 and -0.7343 and -1.607 and 0.0496 and -0.3536 and -0.6468 | ΔpEC50 values (each mutant value - WT average), Mean ([4]; hTA1 V184P mutant minus WT average): 0.071 and 0.2071 | pEC50 values, Mean ([4]; hTA1 V184P mutant, Figure 3B source data, each grid row a separate experiment, 3 replicates): 6.2 and 6.336 | Emax values, Mean ([4]; hTA1 V184P mutant, β-PEA set to 100, each grid row a separate experiment, 3 replicates): 49.3182 and 91.2084 | Span ± SEM (Emax normalized to β-PEA) ([5]; I290Y): 68.94 ± 4.39 | pEC50 ± SEM ([5]; I290Y): 6.05 ± 0.08 | EC50 ([5]; I290Y, read-out: EC50): 889 nM | pEC50 values, Mean ([5]; I290Y, single experiments (3 replicates each)): 6.088 and 6.268 and 5.798 | Emax values, Mean ([5]; I290Y, single experiments (3 replicates each), β-PEA = 100): 77.2061 and 62.2509 and 67.3555 | cAMP accumulation response, normalized (concentration-response source data, single replicate values) ([5]; M = -5): 82.7627 and 66.4498 and 84.9173 and 54.2232 and 60.0862 and 58.254 and 61.3384 and 53.4426 and 63.5944 | cAMP accumulation response, normalized (concentration-response source data, single replicate values) ([5]; M = -5.522): 50.7524 and 44.2888 and 57.216 and 57.1547 and 52.391 and 42.1307 and 35.395 and 42.1629 and 29.7552 | cAMP accumulation response, normalized (concentration-response source data, single replicate values) ([5]; M = -6): 45.5199 and 34.7472 and 39.6719 and 40.665 and 36.2677 and 35.5349 and 24.1153 and 32.0111 and 19.6034 | cAMP accumulation response, normalized (concentration-response source data, single replicate values) ([5]; M = -6.522): 32.5927 and 17.8187 and 23.9745 and 21.6102 and 23.076 and 24.1753 and 17.3474 and 11.7076 (2×) | cAMP accumulation response, normalized (concentration-response source data, single replicate values) ([5]; M = -7): 19.6655 and 9.201 and 18.4343 and 8.4185 and 1.456 and 10.9836 and 6.068 and 3.812 and 4.9397 | cAMP accumulation response, normalized (concentration-response source data, single replicate values) ([5]; M = -7.522): 3.968 and -2.188 and 2.737 and 2.189 and -3.307 and -4.04 and -0.7002 and 0.4278 and -1.828 | cAMP accumulation response, normalized (concentration-response source data, single replicate values) ([5]; M = -8): 2.429 and 0.2746 and -0.0332 and -1.842 and -5.873 and -3.674 and -2.956 and -4.0841 and -0.7002 | cAMP accumulation response, normalized (concentration-response source data, single replicate values) ([5]; M = -8.522): 0.2746 and -3.111 and -0.341 and -6.605 (2×) and -5.873 and -4.0841 (2×) and -5.212 | cAMP accumulation response, normalized (concentration-response source data, single replicate values) ([5]; M = -9): -1.88 and -2.803 and -1.572 and 0.7233 and -0.376 and -4.773 and -6.34 and -4.0841 (2×) | cAMP accumulation response, normalized (concentration-response source data, single replicate values) ([5]; M = -9.522): -1.88 and -3.7267 and -2.188 and -6.605 and -1.109 and -4.407 and -4.0841 (2×) and -6.34 | cAMP accumulation response, normalized (concentration-response source data, single replicate values) ([5]; M = -10): -0.0332 and -2.496 and -1.572 and -6.605 and -6.972 and 4.021 and -2.956 (2×) and -6.34 | cAMP accumulation response, normalized (concentration-response source data, single replicate values) ([5]; M = -10.522): -1.572 | ΔpEC50 values (each mutant value - WT average), Mean ([6]; F195T mutant minus WT average, Figure 5B): -0.7125 and -0.7788 | pEC50 values, Mean ([6]; F195T mutant, Figure 5B, each row one independent experiment (3 replicates)): 5.417 and 5.35 | Emax values, Mean ([6]; F195T mutant, Figure 5B, β-PEA = 100, each row one independent experiment (3 replicates)): 72.2975 and 58.7221 | Span ± SEM (Emax normalized to β-PEA) ([6]; F195T, n=2): 65.51 ± 6.79 | pEC50 ± SEM ([6]; F195T, n=2): 6.67 ± 1.32 | EC50 ([6]; F195T, n=2, read-out: EC50): 213 nM
